From paper PMC10794144, “A novel antibiotic class targeting the lipopolysaccharide transporter” (Nature, 2024) come the findings set out here.

For one assay, the system named is A. baumannii ACC01073. Nature of the assay: Neutropaenic mouse lung infection (pneumonia) model. It counts as in vivo. The settings on record: 120 mg/kg/day q12h. The protocol:
An intramuscular inoculation of a bacterial suspension of approximately 10^6 CFU per thigh was used to induce the infection. Treatment started 2 h after infection. […] Thigh bacterial burden was determined after 24 h of treatment. In the pneumonia model, an intratracheal inoculation of approximately 10^7 CFU per lung was used to induce the infection. Treatment started 2 h after infection. […] Lung bacterial burden was determined after 24 h treatment. Standard of care antibiotic was tested at a single dose in both infection models. GraphPad Prism 8 was used for graphical presentation and to analyse data.

In assay [1] the test system is A. baumannii. The experiment in a line: microbe, parasite or virus in culture. The following applies: CAMHB; for MIC: MCPs read at 80% inhibition. The protocol: MIC determinations were performed using the broth microdilution method and in line with CLSI guidelines M07 and M100 (refs. [37],[38]). Bacterial inocula were prepared by diluting a 0.5 McFarland suspension in CAMHB or lysogeny broth (LB) specifically for A. baylyi isolates. […] MIC values of all of the tested antibiotics were read as the lowest compound concentration inhibiting bacterial growth by naked eye or beyond which the OD600 ceased to decrease.

The test system of assay [2] is A. baumannii. The experiment in a line: Neutropaenic mouse thigh infection model. It counts as in vivo. The following applies: 24 h. The protocol:
An intramuscular inoculation of a bacterial suspension of approximately 10^6 CFU per thigh was used to induce the infection. Treatment started 2 h after infection. […] In the pneumonia model, an intratracheal inoculation of approximately 10^7 CFU per lung was used to induce the infection. Treatment started 2 h after infection. […] Standard of care antibiotic was tested at a single dose in both infection models. GraphPad Prism 8 was used for graphical presentation and to analyse data.

In brackets after ≈: the same amount, converted by molar mass. A value given as a limit tells only on which side of the number the result lay.

Regarding `CN(C)c1cc(NC(=O)CNC(C)(C)C)c(O)c2c1C[C@H]1C[C@H]3[C@H](N(C)C)C(O)=C(C(N)=O)C(=O)[C@@]3(O)C(O)=C1C2=O` [tigecycline, reference compound], in the assay on A. baumannii ACC01073, the “ΔLog CFU/lungs vs A/0h” value came out at 0.70. For the same compound, in the assay with A. baumannii ACC01073 (n = 6), the “CFU/lungs, average” value is recorded as 4.23E+08. The “Log CFU/lungs, average (bacterial load)” value in the assay on A. baumannii ACC01073 (n = 6) is reported as 8.39. In the assay on A. baumannii [1] (Acinetobacter baumannii, 129 clinical isolates), this compound showed an MIC90 of 8 µg/mL (≈ 13.7 µM). The MIC with A. baumannii [1] (Acinetobacter baumannii, ACC00445) turned out to be 2 µg/mL (≈ 3.41 µM); in the assay on A. baumannii [1] (Acinetobacter baumannii, ACC00535) it was 0.5 µg/mL (≈ 0.854 µM); in the assay with A. baumannii [1] (Acinetobacter baumannii, ACC01073) it was 4 µg/mL (≈ 6.83 µM); against A. baumannii [1] (Acinetobacter baumannii, ACC01077), 2 µg/mL (≈ 3.41 µM); in the assay with A. baumannii [1] (Acinetobacter baumannii, ACC01085 / AR0307), 4 µg/mL (≈ 6.83 µM); against A. baumannii [1] (Acinetobacter baumannii, ATCC17978, ATCC 17978), 0.5 µg/mL (≈ 0.854 µM). Further, the MIC against A. baumannii [1] (Acinetobacter baumannii, ATCC19606, ATCC 19606) was determined as 1 µg/mL (≈ 1.71 µM); against A. baumannii [1] (Acinetobacter baumannii, ATCCBAA747, ATCC BAA-747), 0.25 µg/mL (≈ 0.427 µM); against A. baumannii [1] (Acinetobacter baumannii, ROB08701), 1 µg/mL (≈ 1.71 µM); against A. baumannii [1] (Acinetobacter baumannii, ROB08702), 4 µg/mL (≈ 6.83 µM); in the assay on A. baumannii [1] (Acinetobacter baumannii, ROB08703) it was 16 µg/mL (≈ 27.3 µM); against A. baumannii [1] (Acinetobacter baumannii, ROB08704), 0.5 µg/mL (≈ 0.854 µM). Also, the MIC in the assay on A. baumannii [1] (Acinetobacter baumannii, ROB08705) came out at 1 µg/mL (≈ 1.71 µM); in the assay with A. baumannii [1] (Acinetobacter baumannii, ROB08706), 8 µg/mL (≈ 13.7 µM); against A. baumannii [1] (Acinetobacter baumannii, ROB08707) it was 0.5 µg/mL (≈ 0.854 µM); against A. baumannii [1] (Acinetobacter baumannii, ROB08708) it was 1 µg/mL (≈ 1.71 µM); against A. baumannii [1] (Acinetobacter baumannii, ROB08709), 1 µg/mL (≈ 1.71 µM); in the assay with A. baumannii [1] (Acinetobacter baumannii, ROB08710), 1 µg/mL (≈ 1.71 µM).

For the compound colistin [reference compound], the MIC against A. baumannii [1] (ACC00445) is 0.25 µg/mL; in the assay on A. baumannii [1] (ACC00535), 0.5 µg/mL; against A. baumannii [1] (ACC01073), greater than 16 µg/mL; against A. baumannii [1] (ACC01077) it was 16 µg/mL; against A. baumannii [1] (ACC01085 / AR0307), 4 µg/mL; against A. baumannii [1] (ATCC 17978), 0.25 µg/mL. The MIC turned out to be 0.5 µg/mL in the assay with A. baumannii [1] (ATCC 19606); 0.5 µg/mL in the assay with A. baumannii [1] (ATCC BAA-747); 1 µg/mL against A. baumannii [1] (ROB08701); 2 µg/mL in the assay on A. baumannii [1] (ROB08702); 0.5 µg/mL against A. baumannii [1] (ROB08703); 2 µg/mL in the assay with A. baumannii [1] (ROB08704). For the same compound, the MIC in the assay with A. baumannii [1] (ROB08705) amounted to 0.5 µg/mL; in the assay with A. baumannii [1] (ROB08706), 0.25 µg/mL; with A. baumannii [1] (ROB08707), 2 µg/mL; in the assay with A. baumannii [1] (ROB08708), 0.25 µg/mL; in the assay on A. baumannii [1] (ROB08709), 1 µg/mL; against A. baumannii [1] (ROB08710), 2 µg/mL. Further, in the assay on A. baumannii [2] (A. baumannii ACC01085, neutropenic mice, 60 mg/kg/day q8h, summary table, same as average Log CFU/Thigh), the “Bacterial Load (average)” value came out at 3.39.

Regarding `C[C@@H](O)[C@H]1C(=O)N2C(C(=O)O)=C(S[C@@H]3CN[C@H](C(=O)N(C)C)C3)[C@H](C)[C@H]12` [MRP], the “log CFU/thigh, average” value in the assay on A. baumannii [2] (A. baumannii ACC00535 (APV00535), neutropenic mice, MERO 100 mg/kg, average of 8 samples) came to 8.52 log CFU/thigh. Further, the “delta 2 hr; Δ log (vs. veh 2hrs)” value with A. baumannii [2] (A. baumannii ACC00535 (APV00535), neutropenic mice, MERO 100 mg/kg, change of average log CFU/thigh vs start of therapy (2 h)) amounted to 2.37.
